Laboratory results reported in US20240336926A1, “PHARMACEUTICAL COMPOSITION FOR TREATING TRIPLE NEGATIVE BREAST CANCER, CONTAINING NON-NATURAL NUCLEIC ACID LIGAND AS ACTIVE INGREDIENT” (INTEROLIGO CORPORATION, priority 2021, published 2024).
Like-named read-outs stand apart in the source and are kept apart here. [NapdU] = 5-(N-(1-naphthylmethyl)carboxamide)-2'-deoxyuridine (Nap-dU)

Columns and labels:
[1] = biological target: K-RAS G12D protein (Homo sapiens, UniProt P01116, G12D); test: ELISA binding affinity (Kd) for 2nd target; settings: read-out: Biding affinity for 2nd target Kd, ligands with biotin conjugated to the 5′-end
Procedure: The binding affinity of the nucleic acid ligands were measured using enzyme linked immunosorbent assay (ELISA).
The test method was composed of the following steps. • 1) A target protein was coated on a microplate at a low temperature for 16 hours. • 2) The surface of the microplate was blocked by reaction at room temperature for 1 hour using Blocking Buffer (Pierce™ Protein-Free (PBS) Blocking Buffer, Thermo Scientific, USA). • 3) The microplate was treated with a nucleic acid ligand, followed by reaction at 37° C. for 1 hour. • 4) For enzyme conjugation, the microplate was treated with a streptavidin-horseradish peroxidase (HRP) conjugate (Thermo Scientific, USA), followed by reaction at room temperature for 1 hour. • 5) The microplate was treated with TMB substrate solution (Thermo Scientific, USA), followed by reaction at room temperature for 30 minutes. • 6) The microplate was treated with a reaction termination solution (2 M sulfuric acid). • 7) The absorbance was measured at 450 nm using GloMax plate meter (Promega, USA).
The target protein and the nucleic acid ligand were each used at 4-fold dilution starting from 500 nM.

[2] = biological target: human serum albumin (HSA) (Homo sapiens, UniProt P02768); test: ELISA binding affinity (Kd) for 1st target
human serum albumin (HSA), sequence (P02768 25-609): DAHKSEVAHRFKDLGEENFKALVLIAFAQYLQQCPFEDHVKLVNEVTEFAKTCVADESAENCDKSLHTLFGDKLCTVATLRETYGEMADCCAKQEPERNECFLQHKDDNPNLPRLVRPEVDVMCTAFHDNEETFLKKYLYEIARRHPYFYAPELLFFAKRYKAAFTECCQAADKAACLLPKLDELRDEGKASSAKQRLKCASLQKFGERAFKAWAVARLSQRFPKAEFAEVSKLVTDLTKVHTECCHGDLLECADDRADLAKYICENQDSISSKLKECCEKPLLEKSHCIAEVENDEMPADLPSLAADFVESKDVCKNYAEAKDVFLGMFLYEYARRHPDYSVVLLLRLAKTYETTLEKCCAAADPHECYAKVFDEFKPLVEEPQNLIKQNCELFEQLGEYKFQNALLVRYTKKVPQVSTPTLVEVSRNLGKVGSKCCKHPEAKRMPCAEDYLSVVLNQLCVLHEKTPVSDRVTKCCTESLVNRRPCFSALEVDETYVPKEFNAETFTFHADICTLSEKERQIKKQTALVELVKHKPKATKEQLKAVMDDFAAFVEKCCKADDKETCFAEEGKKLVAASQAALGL

[3] = Serum half-life in human serum (urea-PAGE band intensity); format: in vitro ADME; settings: 96% human serum, 37° C.; ligands with biotin conjugated to the 5′-end
Procedure: The stabilized nucleic acid ligand was added to the 96% human serum and then reacted at 37° C. for 0, 3, 6, 9, 12, 15, and 18 hours, thereby inducing the degradation of the nucleic acid ligand. After each of the reaction times, the nuclease was inactivated by heating at 85° C., and electrophoresis was performed on a 10% urea-polyacrylamide gel. A control without the addition of human serum was included as a loading control, and the band intensities of the control and the test groups were measured. The intensity trend line over time was determined using the measurement values, and the intensity value was inserted into the trend equation to obtain the half-life.

With “AD004: truncated nucleic acid ligand GCCTGGAC6AGCA6AAG6CCGGA6GGCAGC666A6GCCGACCA6CAGCC, 6 = Nap-dU (DNA GCCTGGACUAGCAUAAGUCCGGAUGGCAGCUUUAUGCCGACCAUCAGCC; aptamer; DNA, [NapdU] at 9, 14, 18, 24, 31, 32, 33, 35, 44, backbone and methylation of C not given here)” as the substance, how does the Kd [1] read?
Its Kd is 16.6 nM.

What about the Kd [2] of the same substance?
The Kd was 190 nM.

Which results are given for “AD005: truncated nucleic acid ligand GAC6AGCA6AAG6CCGGA6GGCAGC666A6GCCGACCA6, 6 = Nap-dU (DNA GACNAGCANAAGNCCGGANGGCAGCNNNANGCCGACCAN; Nap-dU modified bases; modified_base 4 OTHER; 5-(N-(1-naphthylmethyl)carboxamide)-2-deoxyuridine; modified_base 9 OTHER; 5-(N-(1-naphthylmethyl)carboxamide)-2'-deoxyuridine(Nap-dU); modified_base 13 OTHER; modified_base 19 OTHER; modified_base 26..28 OTHER; 5-(N-(1-naphthylmethyl)carboxamide)-2'-deox)”?
Serum half-life t½ [3]: 30.1 h; Kd [1]: 22.9 nM; Kd ([2]; HSA, ELISA, ligands with biotin conjugated to the 5′-end, read-out: Biding affinity for 1st target Kd): 122 nM

What does the source list for “AD006: truncated nucleic acid ligand GAC6AGCA6AAG6CCGGA6GGCAGC666A6GCCG, 6 = Nap-dU (DNA GACUAGCAUAAGUCCGGAUGGCAGCUUUAUGCCG; aptamer; DNA, [NapdU] at 4, 9, 13, 19, 26, 27, 28, 30, backbone and methylation of C not given here)”?
Kd [1]: 77.6 nM; Kd [2]: 939 nM

For “AD007: truncated nucleic acid ligand GCA6AAG6CCGGA6GGCAGC666A6GCCGACC, 6 = Nap-dU (DNA GCAUAAGUCCGGAUGGCAGCUUUAUGCCGACC; aptamer; DNA, [NapdU] at 4, 8, 14, 21, 22, 23, 25, backbone and methylation of C not given here)”, which Kd [1] is on record?
Its Kd is 152 nM.

What about the Kd [2] of the same substance?
Its Kd is 536 nM.

Which Kd [1] does the source give for “AD008: truncated nucleic acid ligand GCA6AAG6CCGGA6GGCAGC666A6GC, 6 = Nap-dU (DNA GCAUAAGUCCGGAUGGCAGCUUUAUGC; aptamer; DNA, [NapdU] at 4, 8, 14, 21, 22, 23, 25, backbone and methylation of C not given here)” here?
The Kd was 287 nM.

And the Kd [2]?
Its Kd is 66.9 nM.
